Here are results for 31 compounds from US7632829B2, “Diazepan derivatives” (Hoffmann-La Roche Inc., priority 2006, dated 2009).

Usually IC50 stands for the point on the concentration scale where inhibition reaches its midpoint.

The target of this test is T1, human chemokine receptor 2 isoform B (Homo sapiens, UniProt P41597).
T1 construct: host or cells: CHOK1-CCR2B-A5 (CHO-K1)
T1 sequence (P41597 1-360 isoform P41597-2): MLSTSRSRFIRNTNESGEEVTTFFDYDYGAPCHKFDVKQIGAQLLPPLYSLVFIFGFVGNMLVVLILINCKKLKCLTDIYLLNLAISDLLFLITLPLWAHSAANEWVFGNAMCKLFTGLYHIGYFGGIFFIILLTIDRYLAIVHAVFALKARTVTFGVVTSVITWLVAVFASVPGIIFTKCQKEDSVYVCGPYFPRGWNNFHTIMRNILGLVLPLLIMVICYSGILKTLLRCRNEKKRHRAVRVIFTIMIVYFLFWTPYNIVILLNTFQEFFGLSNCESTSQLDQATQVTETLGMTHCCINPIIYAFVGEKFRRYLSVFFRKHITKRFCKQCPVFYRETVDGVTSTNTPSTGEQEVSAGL
Nature of the test: Calcium mobilization assay (FLIPR, CHOK1-CCR2B-A5 cells, 20 nM MCP-1). It counts as cell-based. The following applies: Ca mobilisation assay, CCR2, antagonist activity vs 20 nM MCP-1. The method in brief: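 FLIPR Fluo-4 calcium readout in CHO-K1 cells stably overexpressing human CCR2B; compounds first monitored 80 s for agonist activity, then after 20-30 min at 30 °C challenged with 20 nM MCP-1. Response is max minus basal fluorescence; antagonist value is concentration giving 50% inhibition of specific calcium increase.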
For the compound `O=C(/C=C/c1ccc(Cl)c(Cl)c1)N1CCC(=O)N(CCCNC2CCCC2)CC1` [Example 36, 4-[3-(Cyclopentyl-amino)-propyl]-1-[(E)-3-(3,4-dichloro-phenyl)-acryloyl]-[1,4]diazepan-5-one], the IC50 was 725 nM.

`CN(CCCN1CCN(C(=O)/C=C/c2ccc(Cl)c(Cl)c2)CCC1=O)C1CCCC1` [Example 37, 4-[-3-(Cyclopentyl-methyl-amino)-propyl]-1-[(E)-3-(3,4-dichloro-phenyl)-acryloyl]-[1,4]diazepan-5-one]: the IC50 turned out to be 265 nM.

For `C[C@@H]1C[C@H](O)CN(C[C@H](O)CCN2CCN(C(=O)/C=C/c3ccc(Cl)c(Cl)c3)CCC2=O)C1` [Example 503], the IC50 stood at 51 nM.

Turning to `O=C(/C=C/c1ccc(F)c(Cl)c1)N1CCC(=O)N(CCCCN2CCCC(O)C2)CC1` (racemic) [Example 383], the IC50 worked out at 198 nM.

In the case of `O=C(/C=C/c1ccc(Cl)c(Cl)c1)N1CCC(=O)N(CCC(O)CN2CCCC(CO)C2)CC1` (racemic) [Example 378], the IC50 was determined as 1240 nM.

Turning to `COCC1CCC(O)CN1CCCCN1CCN(C(=O)/C=C/c2ccc(Cl)c(Cl)c2)CCC1=O` (racemic) [Example 479], the 50% inhibitory concentration (IC50) came to 232 nM.

As to `COC(=O)C(CCCN1CCCCC1)N1CCN(C(=O)/C=C/c2ccc(Cl)c(Cl)c2)CCC1=O` (racemic) [Example 179, (rac)-2-{4-[(E)-3-(3,4-Dichloro-phenyl)-acryloyl]-7-oxo-[1,4]diazepan-1-yl}-5-piperidin-1-yl-pentanoic acid methyl ester], the IC50 came out at 3 nM.

On to `CC1(C)CN(CC(O)CN2CCN(C(=O)/C=C/c3ccc(Cl)c(Cl)c3)CCC2=O)CCC1O` (racemic) [Example 324], for which the IC50 was 215 nM.

For `CC1CCCCN1CC(O)CCN1CCN(C(=O)/C=C/c2ccc(Cl)c(Cl)c2)CCC1=O` (racemic) [Example 375], the IC50 was 274 nM.

As for `COC1CCC(CO)N(CCCCN2CCN(C(=O)/C=C/c3ccc(Cl)c(Cl)c3)CCC2=O)C1` (racemic) [Example 477], the IC50 was 313 nM.

As for `O=C(/C=C/c1ccc(F)c(Cl)c1)N1CCC(=O)N(CCCCN2CCCCC2)CC1` [Example 382], the IC50 came out at 246 nM.

On to `CC1CCN(CCCN2CCN(C(=O)/C=C/c3ccc(F)c(Cl)c3)CCC2=O)CC1O` (single isomer, unassigned) [Example 191, 1-[(E)-3-(3-Chloro-4-fluoro-phenyl)-acryloyl]-4-[3-((−, cis)-3-hydroxy-4-methyl-piperidin-1-yl)-propyl]-[1,4]diazepan-5-one], for which the IC50 amounted to 25 nM.

As for `CC1(C)CCN(C[C@H](O)CCN2CCN(C(=O)/C=C/c3ccc(Cl)c(Cl)c3)CCC2=O)CC1O` (stereo partly shown) [Example 501], the IC50 is 155 nM.

Turning to `O=C(/C=C/c1ccc(Cl)c(Cl)c1)N1CCC(=O)N(C[C@@H](O)CN2CCC3(CC3)C(O)C2)CC1` (stereo partly drawn) [Example 332, 1-[(E)-3-(3,4-Dichloro-phenyl)-acryloyl]-4-[(S)-2-hydroxy-3-((+)-4-hydroxy-6-aza-spiro[2.5]oct-6-yl)-propyl]-[1,4]diazepan-5-one], the IC50 amounted to 2 nM.

As for `COCC1C(O)CCCN1CCCCN1CCN(C(=O)/C=C/c2ccc(Cl)c(Cl)c2)CCC1=O` (racemic) [Example 486], the IC50 was determined as 205 nM.

For the compound `O=C(/C=C/c1ccc(F)c(Cl)c1)N1CCC(=O)N(CCCCN2CC[C@@H](O)[C@H](F)C2)CC1` (racemic) [Example 394], the IC50 stood at 551 nM.

For `O=C(O)C(CN1CCCCC1)CN1CCN(C(=O)/C=C/c2ccc(Cl)c(Cl)c2)CCC1=O` (racemic) [Example 183, Lithium; (rac)-3-{4-[(E)-3-(3,4-dichloro-phenyl)-acryloyl]-7-oxo-[1,4]diazepan-1-yl}-2-piperidin-1-ylmethyl-propionate], the concentration for half-maximal inhibition (IC50) was determined as 1230 nM.

On to `O=C(/C=C/c1ccc(Cl)c(Cl)c1)N1CCC(=O)N(CCCCN2CC[C@@H](O)[C@H](O)C2)CC1` (racemic) [Example 165, 1-[(E)-3-(3,4-Dichloro-phenyl)-acryloyl]-4-[4-((3RS,4RS)-3,4-dihydroxy-piperidin-1-yl)-butyl]-[1,4]diazepan-5-one], for which the IC50 is 345 nM.

As for `C[C@]1(CO)CCN(CCCN2CCN(C(=O)/C=C/c3ccc(Cl)c(Cl)c3)CCC2=O)C[C@H]1O` (racemic) [Example 270, (rac,cis)-1-[(E)-3-(3,4-Dichloro-phenyl)-acryloyl]-4-[3-(3-hydroxy-4-hydroxymethyl-4-methyl-piperidin-1-yl)-propyl]-[1,4]diazepan-5-one], the IC50 turned out to be 10 nM.

On to `O=C(/C=C/c1ccc(Cl)c(Cl)c1)N1CCC(=O)N(CCN[C@H]2CC[C@H](O)CC2)CC1` [Example 106, trans-1-[(E)-3-(3,4-Dichloro-phenyl)-acryloyl]-4-[2-(4-hydroxy-cyclohexylamino)-ethyl]-[1,4]diazepan-5-one], for which the IC50 was 523 nM.

As for `O=C(/C=C/c1ccc(Cl)c(Cl)c1)N1CCC(=O)N(CCCN2CCC(O)(c3ncco3)CC2)CC1` [Example 85, 1-[(E)-3-(3,4-Dichloro-phenyl)-acryloyl]-4-[3-(4-hydroxy-4-oxazol-2-yl-piperidin-1-yl)-propyl]-[1,4]diazepan-5-one], the IC50 turned out to be 1170 nM.

Regarding `CC(C)N1CCN(CC(O)CN2CCN(C(=O)/C=C/c3ccc(Cl)c(Cl)c3)CCC2=O)CC1` (racemic) [Example 296], the IC50 came to 298 nM.

Consider `O=C(/C=C/c1ccc(Cl)c(Cl)c1)N1CCC(=O)N(CCCN2CCC(O)C3(CC3)C2)CC1` (racemic) [Example 252], for which the IC50 stood at 120 nM.

Take `CC(=O)NC1CCCN(CCCCN2CCN(C(=O)/C=C/c3ccc(Cl)c(Cl)c3)CCC2=O)C1` (racemic) [Example 466]: the IC50 worked out at 389 nM.

As for `COCCN1CCN(CCCCN2CCN(C(=O)/C=C/c3ccc(F)c(Cl)c3)CCC2=O)CC1` [Example 399], the IC50 was found to be 720 nM.

Take `C[C@@H]1CN(CC(O)CCN2CCN(C(=O)/C=C/c3ccc(Cl)c(Cl)c3)CCC2=O)CC[C@H]1O` (mixture of isomers) [Example 372, (rac)-1-[(E)-3-(3,4-Dichloro-phenyl)-acryloyl]-4-[3-hydroxy-4-(trans-4-hydroxy-3-methyl-piperidin-1-yl)-butyl]-[1,4]diazepan-5-one]: the half-inhibitory concentration (IC50) is 1230 nM.

Regarding `CCN(CC)C1CCN(CCN2CCN(C(=O)/C=C/c3ccc(Cl)c(Cl)c3)CCC2=O)C1` (racemic) [Example 347], the IC50 is 864 nM.

On to `O=C(/C=C/c1ccc(Cl)c(Cl)c1)N1CCC(=O)N(CCCNC2CC3CCC2C3)CC1` (racemic) [Example 38, (+/−)-4-[3-(Bicyclo[2.2.1]hept-2-ylamino)-propyl]-1-[(E)-3-(3,4-dichloro-phenyl)-acryloyl]-[1,4] diazepan-5-one], for which the IC50 is 121 nM.

In the case of `CC1CN(CCCN2CCN(C(=O)/C=C/c3ccc(Cl)c(Cl)c3)CCC2=O)CCC1O` (racemic) [Example 243], the IC50 was found to be 133 nM.

On to `CC1(CO)CCCCN1CCCCN1CCN(C(=O)/C=C/c2ccc(Cl)c(Cl)c2)CCC1=O` (racemic) [Example 447], for which the IC50 was 92 nM.

For the compound `CC1CCC(N(C)CCN2CCN(C(=O)/C=C/c3ccc(Cl)c(Cl)c3)CCC2=O)CC1` (mixture of isomers) [Example 124, cis/trans-1-[(E)-3-(3,4-Dichloro-phenyl)-acryloyl]-4-{3-[methyl-(4-methyl-cyclohexyl)-amino]-ethyl}-[1,4]diazepan-5-one], the half-inhibitory concentration (IC50) worked out at 667 nM.
